# Measured values: ChEMBL document CHEMBL4308841, “Synthesis, in vitro antiproliferative activity, and kinase inhibitory effects of pyrazole-containing diarylureas and diarylamides” (Eur J Med Chem, 2018)
# Key:
# HL-60(TB) [1] = test: Growth inhibition of human HL-60(TB) cells incubated for 48 hrs by sulforhodamine B assay; assay type: functional, cell-based; settings: HL-60, 48 h
# NCI-H23 = test: Growth inhibition of human NCI-H23 cells incubated for 48 hrs by sulforhodamine B assay; assay type: functional, cell-based; settings: NCI-H23, 48 h
# SF-539 [2] = test: Growth inhibition of human SF539 cells incubated for 48 hrs by sulforhodamine B assay; assay type: functional, cell-based; settings: SF-539, 48 h
# SNB-75 [3] = test: Growth inhibition of human SNB75 cells incubated for 48 hrs by sulforhodamine B assay; assay type: functional, cell-based; settings: SNB-75, 48 h
# MCF7 [4] = test: Growth inhibition of human MCF7 cells incubated for 48 hrs by sulforhodamine B assay; assay type: functional, cell-based; settings: MCF7, 48 h
# Hs-578T [5] = test: Growth inhibition of human Hs578T cells incubated for 48 hrs by sulforhodamine B assay; assay type: functional, cell-based
# HT-29 = test: Growth inhibition of human HT-29 cells assessed as cell growth at 0.01 uM incubated for 48 hrs by sulforhodamine B assay relative to control; assay type: functional; settings: HT-29, 48 h, read-out: Activity
# SNB-19 = test: Growth inhibition of human SNB19 cells assessed as cell growth at 0.01 uM incubated for 48 hrs by sulforhodamine B assay relative to control; assay type: functional; settings: SNB-19, 48 h, read-out: Activity
# SK-MEL-2 = test: Growth inhibition of human SK-MEL-2 cells assessed as cell growth at 0.01 uM incubated for 48 hrs by sulforhodamine B assay relative to control; assay type: functional; settings: SK-MEL-2, 48 h, read-out: Activity
# UACC-257 = test: Growth inhibition of human UACC257 cells assessed as cell growth at 0.01 uM incubated for 48 hrs by sulforhodamine B assay relative to control; assay type: functional; settings: UACC-257, 48 h, read-out: Activity
# IGROV-1 = test: Growth inhibition of human IGROV1 cells assessed as cell growth at 0.01 uM incubated for 48 hrs by sulforhodamine B assay relative to control; assay type: functional; settings: IGROV-1, 48 h, read-out: Activity
# SK-OV-3 = test: Growth inhibition of human SKOV3 cells assessed as cell growth at 0.01 uM incubated for 48 hrs by sulforhodamine B assay relative to control; assay type: functional; settings: SK-OV-3, 48 h, read-out: Activity
# RXF 393 = test: Growth inhibition of human RXF393 cells assessed as cell growth at 0.01 uM incubated for 48 hrs by sulforhodamine B assay relative to control; assay type: functional; settings: RXF 393, 48 h, read-out: Activity
# MCF7 [6] = test: Growth inhibition of human MCF7 cells assessed as cell growth at 0.01 uM incubated for 48 hrs by sulforhodamine B assay relative to control; assay type: functional; settings: MCF7, 48 h, read-out: Activity
# SR = test: Growth inhibition of human SR cells assessed as cell growth at 0.1 uM incubated for 48 hrs by sulforhodamine B assay relative to control; assay type: functional; settings: read-out: Activity
# NCI-H322M [7] = test: Growth inhibition of human NCI-H322M cells assessed as cell growth at 0.1 uM incubated for 48 hrs by sulforhodamine B assay relative to control; assay type: functional; settings: read-out: Activity
# OVCAR-3 = test: Growth inhibition of human OVCAR3 cells assessed as cell growth at 0.1 uM incubated for 48 hrs by sulforhodamine B assay relative to control; assay type: functional; settings: OVCAR-3, 48 h, read-out: Activity
# SN12C [8] = test: Growth inhibition of human SN12C cells assessed as cell growth at 0.1 uM incubated for 48 hrs by sulforhodamine B assay relative to control; assay type: functional; settings: read-out: Activity
# HL-60(TB) [9] = test: Growth inhibition of human HL-60(TB) cells assessed as cell growth at 1 uM incubated for 48 hrs by sulforhodamine B assay relative to control; assay type: functional; settings: HL-60, 48 h, read-out: Activity
# NCI-H322M [10] = test: Growth inhibition of human NCI-H322M cells assessed as cell growth at 1 uM incubated for 48 hrs by sulforhodamine B assay relative to control; assay type: functional; settings: read-out: Activity
# HCT-116 = test: Growth inhibition of human HCT116 cells assessed as cell growth at 1 uM incubated for 48 hrs by sulforhodamine B assay relative to control; assay type: functional; settings: HCT-116, 48 h, read-out: Activity
# SF-295 = test: Growth inhibition of human SF295 cells assessed as cell growth at 1 uM incubated for 48 hrs by sulforhodamine B assay relative to control; assay type: functional; settings: SF-295, 48 h, read-out: Activity
# CAKI-1 = test: Growth inhibition of human Caki1 cells assessed as cell growth at 1 uM incubated for 48 hrs by sulforhodamine B assay relative to control; assay type: functional; settings: CAKI-1, 48 h, read-out: Activity
# SN12C [11] = test: Growth inhibition of human SN12C cells assessed as cell growth at 1 uM incubated for 48 hrs by sulforhodamine B assay relative to control; assay type: functional; settings: read-out: Activity
# Hs-578T [12] = test: Growth inhibition of human Hs578T cells assessed as cell growth at 1 uM incubated for 48 hrs by sulforhodamine B assay relative to control; assay type: functional; settings: read-out: Activity
# NCI-H226 = test: Growth inhibition of human NCI-H226 cells assessed as cell growth at 100 uM incubated for 48 hrs by sulforhodamine B assay relative to control; assay type: functional; settings: NCI-H226, 48 h, read-out: Activity
# HCT-15 = test: Growth inhibition of human HCT15 cells assessed as cell growth at 100 uM incubated for 48 hrs by sulforhodamine B assay relative to control; assay type: functional; settings: HCT-15, 48 h, read-out: Activity
# SF-539 [13] = test: Growth inhibition of human SF539 cells assessed as cell growth at 100 uM incubated for 48 hrs by sulforhodamine B assay relative to control; assay type: functional; settings: SF-539, 48 h, read-out: Activity
# SNB-75 [14] = test: Growth inhibition of human SNB75 cells assessed as cell growth at 100 uM incubated for 48 hrs by sulforhodamine B assay relative to control; assay type: functional; settings: SNB-75, 48 h, read-out: Activity
# OVCAR-4 = test: Growth inhibition of human OVCAR4 cells assessed as cell growth at 100 uM incubated for 48 hrs by sulforhodamine B assay relative to control; assay type: functional; settings: OVCAR-4, 48 h, read-out: Activity
# [15] = read-out: LC50 (the source's name)
# [16] = read-out: pLC50 (the source's name) (converted)
smiles,measurement,setting,value
COc1cc(Cl)cc(-c2nn(-c3cccc(NC(=O)c4cccc(C(F)(F)F)c4)c3)cc2-c2ccncc2)c1,GI50,HL-60(TB) [1]; read-out: GI50,4.5 µM
same,LC50,HL-60(TB) [1]; read-out: LC50,> 100 µM
same,TGI,HL-60(TB) [1]; read-out: TGI,> 100 µM
same,GI50,HL-60(TB) [1]; read-out: pGI50 (converted),45.7 µM
same,LC50,HL-60(TB) [1]; read-out: pLC50 (converted),> 100 µM
same,TGI,HL-60(TB) [1]; read-out: pTGI (converted),> 100 µM
same,GI50,NCI-H23; read-out: GI50,5.74 µM
same,LC50,NCI-H23; read-out: LC50,> 100 µM
same,TGI,NCI-H23; read-out: TGI,> 100 µM
same,GI50,NCI-H23; read-out: pGI50 (converted),6.76 µM
same,LC50,NCI-H23; read-out: pLC50 (converted),> 100 µM
same,TGI,NCI-H23; read-out: pTGI (converted),> 100 µM
same,GI50,SF-539 [2]; read-out: GI50,> 100 µM
same,CC50,SF-539 [2]; [15],> 100 µM
same,TGI,SF-539 [2]; read-out: TGI,> 100 µM
same,GI50,SF-539 [2]; read-out: pGI50 (converted),> 100 µM
same,CC50,SF-539 [2]; [16],> 100 µM
same,TGI,SF-539 [2]; read-out: pTGI (converted),> 100 µM
same,GI50,SNB-75 [3]; read-out: GI50,5.52 µM
same,CC50,SNB-75 [3]; [15],> 100 µM
same,TGI,SNB-75 [3]; read-out: TGI,> 100 µM
same,GI50,SNB-75 [3]; read-out: pGI50 (converted),7.08 µM
same,CC50,SNB-75 [3]; [16],> 100 µM
same,TGI,SNB-75 [3]; read-out: pTGI (converted),> 100 µM
same,GI50,MCF7 [4]; read-out: GI50,4.17 µM
same,LC50,MCF7 [4]; read-out: LC50,> 100 µM
same,TGI,MCF7 [4]; read-out: TGI,> 100 µM
same,GI50,MCF7 [4]; read-out: pGI50 (converted),4.17 µM
same,LC50,MCF7 [4]; read-out: pLC50 (converted),> 100 µM
same,TGI,MCF7 [4]; read-out: pTGI (converted),> 100 µM
same,GI50,Hs-578T [5]; read-out: GI50,> 100 µM
same,CC50,Hs-578T [5]; [15],> 100 µM
same,TGI,Hs-578T [5]; read-out: TGI,> 100 µM
same,GI50,Hs-578T [5]; read-out: pGI50 (converted),> 100 µM
same,CC50,Hs-578T [5]; [16],> 100 µM
same,TGI,Hs-578T [5]; read-out: pTGI (converted),> 100 µM
same,growth at 0.01 µM,HT-29,90%
same,growth at 0.01 µM,SNB-19,96%
same,growth at 0.01 µM,SK-MEL-2,52%
same,growth at 0.01 µM,UACC-257,91%
same,growth at 0.01 µM,IGROV-1,94%
same,growth at 0.01 µM,SK-OV-3,102%
same,growth at 0.01 µM,RXF 393,58%
same,growth at 0.01 µM,MCF7 [6],93%
same,growth at 0.1 µM,SR,54%
same,growth at 0.1 µM,NCI-H322M [7],95%
same,growth at 0.1 µM,OVCAR-3,108%
same,growth at 0.1 µM,SN12C [8],99%
same,growth at 1 µM,HL-60(TB) [9],105%
same,growth at 1 µM,NCI-H322M [10],90%
same,growth at 1 µM,HCT-116,71%
same,growth at 1 µM,SF-295,57%
same,growth at 1 µM,CAKI-1,90%
same,growth at 1 µM,SN12C [11],58%
same,growth at 1 µM,Hs-578T [12],52%
same,growth at 100 µM,NCI-H226,50%
same,growth at 100 µM,HCT-15,28%
same,growth at 100 µM,SF-539 [13],53%
same,growth at 100 µM,SNB-75 [14],49%
same,growth at 100 µM,OVCAR-4,74%
O=C(Nc1cccc(-n2cc(-c3ccncc3)c(-c3cc(O)cc(Cl)c3)n2)c1)c1cc(C(F)(F)F)cc(C(F)(F)F)c1,GI50,NCI-H23; read-out: GI50,4.18 µM
same,LC50,NCI-H23; read-out: LC50,> 100 µM
same,TGI,NCI-H23; read-out: TGI,45.5 µM
same,GI50,NCI-H23; read-out: pGI50 (converted),4.17 µM
same,LC50,NCI-H23; read-out: pLC50 (converted),> 100 µM
same,TGI,NCI-H23; read-out: pTGI (converted),46.8 µM
same,GI50,SF-539 [2]; read-out: GI50,5.01 µM
same,CC50,SF-539 [2]; [15],> 100 µM
same,TGI,SF-539 [2]; read-out: TGI,51.7 µM
same,GI50,SF-539 [2]; read-out: pGI50 (converted),5.01 µM
same,CC50,SF-539 [2]; [16],> 100 µM
same,TGI,SF-539 [2]; read-out: pTGI (converted),51.3 µM
same,GI50,SNB-75 [3]; read-out: GI50,2.3 µM
same,CC50,SNB-75 [3]; [15],> 100 µM
same,TGI,SNB-75 [3]; read-out: TGI,> 100 µM
same,GI50,SNB-75 [3]; read-out: pGI50 (converted),2.82 µM
same,CC50,SNB-75 [3]; [16],> 100 µM
same,TGI,SNB-75 [3]; read-out: pTGI (converted),> 100 µM
same,GI50,MCF7 [4]; read-out: GI50,2.55 µM
same,LC50,MCF7 [4]; read-out: LC50,> 100 µM
same,TGI,MCF7 [4]; read-out: TGI,> 100 µM
same,GI50,MCF7 [4]; read-out: pGI50 (converted),2.88 µM
same,LC50,MCF7 [4]; read-out: pLC50 (converted),> 100 µM
same,TGI,MCF7 [4]; read-out: pTGI (converted),> 100 µM
same,GI50,Hs-578T [5]; read-out: GI50,6.38 µM
same,CC50,Hs-578T [5]; [15],> 100 µM
same,TGI,Hs-578T [5]; read-out: TGI,> 100 µM
same,GI50,Hs-578T [5]; read-out: pGI50 (converted),6.31 µM
same,CC50,Hs-578T [5]; [16],> 100 µM
same,TGI,Hs-578T [5]; read-out: pTGI (converted),> 100 µM
same,growth at 0.01 µM,HT-29,96%
same,growth at 0.01 µM,SNB-19,97%
same,growth at 0.01 µM,SK-MEL-2,95%
same,growth at 0.01 µM,UACC-257,92%
same,growth at 0.01 µM,IGROV-1,100%
same,growth at 0.01 µM,SK-OV-3,102%
same,growth at 0.01 µM,RXF 393,96%
same,growth at 0.01 µM,MCF7 [6],58%
same,growth at 0.1 µM,SR,94%
same,growth at 0.1 µM,NCI-H322M [7],90%
same,growth at 0.1 µM,OVCAR-3,102%
same,growth at 0.1 µM,SN12C [8],98%
same,growth at 1 µM,NCI-H322M [10],90%
same,growth at 1 µM,HCT-116,59%
same,growth at 1 µM,SF-295,59%
same,growth at 1 µM,CAKI-1,90%
same,growth at 1 µM,SN12C [11],91%
same,growth at 1 µM,Hs-578T [12],92%
same,growth at 100 µM,NCI-H226,19%
same,growth at 100 µM,HCT-15,-47%
same,growth at 100 µM,SF-539 [13],-13%
same,growth at 100 µM,SNB-75 [14],15%
same,growth at 100 µM,OVCAR-4,15%
